Where “and” joins values, the source holds several entries; their conditions need not be identical. Identical values can stand only once.

Experiment [1] deals with recombinant light chain A (rLCA) (Clostridium botulinum, UniProt P0DPI0). The experiment is described as follows: biochemical. Details: species or system C. botulinum.
In the next experiment the target is LC of BoNT/A (Clostridium botulinum, UniProt P0DPI0). In words: biochemical. The format is biochemical, C. botulinum.
A further experiment concerns the target BoNT/A LC (Clostridium botulinum, UniProt P0DPI0). The experiment is described as follows: biochemical. The format is biochemical, C. botulinum. The following applies: for inhibition at 100 µM: read-out: % of Inhibition at 100 μM.
A further experiment addresses BoNT/A (Clostridium botulinum, UniProt P0DPI0). The format is cell-based, C. botulinum.

Chain of BoNT/A (P0DPI0 whole entry, looked up): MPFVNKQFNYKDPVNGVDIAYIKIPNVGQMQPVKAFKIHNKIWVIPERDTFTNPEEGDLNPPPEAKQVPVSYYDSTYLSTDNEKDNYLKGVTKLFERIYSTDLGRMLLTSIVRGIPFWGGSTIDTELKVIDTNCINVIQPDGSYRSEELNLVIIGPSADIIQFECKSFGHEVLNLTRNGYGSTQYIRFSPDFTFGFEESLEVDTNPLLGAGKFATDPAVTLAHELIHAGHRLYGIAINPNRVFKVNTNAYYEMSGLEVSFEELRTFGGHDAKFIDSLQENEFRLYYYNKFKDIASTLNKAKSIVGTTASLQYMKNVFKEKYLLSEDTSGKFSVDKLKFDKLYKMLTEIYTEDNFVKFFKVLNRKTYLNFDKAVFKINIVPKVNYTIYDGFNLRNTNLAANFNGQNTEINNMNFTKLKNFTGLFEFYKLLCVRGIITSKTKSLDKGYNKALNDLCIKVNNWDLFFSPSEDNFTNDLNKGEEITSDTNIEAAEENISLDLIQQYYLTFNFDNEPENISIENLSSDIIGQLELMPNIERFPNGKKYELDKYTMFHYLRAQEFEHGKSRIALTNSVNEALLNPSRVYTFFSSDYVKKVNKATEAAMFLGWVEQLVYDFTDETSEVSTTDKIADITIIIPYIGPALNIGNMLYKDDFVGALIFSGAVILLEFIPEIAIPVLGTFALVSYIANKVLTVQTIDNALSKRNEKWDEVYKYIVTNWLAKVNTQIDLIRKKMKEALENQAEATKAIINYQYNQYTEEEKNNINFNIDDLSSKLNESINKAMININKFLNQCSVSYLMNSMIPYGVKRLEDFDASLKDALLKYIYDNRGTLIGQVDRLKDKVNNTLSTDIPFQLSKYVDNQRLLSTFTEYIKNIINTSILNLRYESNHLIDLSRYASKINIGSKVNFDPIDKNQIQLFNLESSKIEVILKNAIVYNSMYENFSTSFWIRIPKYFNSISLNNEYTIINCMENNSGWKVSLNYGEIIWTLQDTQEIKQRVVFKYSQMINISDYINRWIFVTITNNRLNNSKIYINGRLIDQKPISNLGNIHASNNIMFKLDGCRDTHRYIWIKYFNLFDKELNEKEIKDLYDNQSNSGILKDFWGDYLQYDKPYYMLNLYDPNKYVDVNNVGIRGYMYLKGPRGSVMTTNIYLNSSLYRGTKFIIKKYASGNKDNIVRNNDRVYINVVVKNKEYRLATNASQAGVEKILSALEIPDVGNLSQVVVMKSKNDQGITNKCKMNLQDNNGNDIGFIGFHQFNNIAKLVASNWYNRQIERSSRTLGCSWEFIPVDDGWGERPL
Chain of recombinant light chain A (rLCA) (P0DPI0 2-448 limits assumed): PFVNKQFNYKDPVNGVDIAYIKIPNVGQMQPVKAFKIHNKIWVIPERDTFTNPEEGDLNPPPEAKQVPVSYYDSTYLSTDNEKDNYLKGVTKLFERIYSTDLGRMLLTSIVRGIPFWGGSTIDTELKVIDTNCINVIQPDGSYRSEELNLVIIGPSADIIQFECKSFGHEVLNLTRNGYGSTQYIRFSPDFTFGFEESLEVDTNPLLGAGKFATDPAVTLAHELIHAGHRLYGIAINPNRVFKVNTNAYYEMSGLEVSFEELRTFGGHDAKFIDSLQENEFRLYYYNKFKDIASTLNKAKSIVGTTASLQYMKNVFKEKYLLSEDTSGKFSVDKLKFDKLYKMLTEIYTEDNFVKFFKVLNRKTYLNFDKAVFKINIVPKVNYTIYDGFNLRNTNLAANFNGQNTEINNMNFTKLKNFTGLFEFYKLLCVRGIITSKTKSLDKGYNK
Chain of LC of BoNT/A (P0DPI0 2-448 limits assumed): as above
Chain of BoNT/A LC (P0DPI0 2-448 limits assumed): as above

The IC50 is the concentration needed to halve the response being measured. Broadly, the Ki is a dissociation constant, usually derived from enzyme kinetics or from competition with a known ligand. Usually inhibition stands for the drop in the measured response relative to a control, in per cent. Regarding `O=c1ccc2cc3c(-c4ccc([N+](=O)[O-])cc4)coc3cc2o1` [Compound 1, 3-(4-nitrophenyl)-7H-furo[3,2-g][1]benzopyran-7-one], the IC50 in experiment [1] stood at 10 µM. Moreover, on LC of BoNT/A, the Vmax is 2.064 RFU/s and 2.79 RFU/s and 2.55 RFU/s; the type of inhibition entry is reported as “non-competitive inhibition”; the α was 2.76 (±1.12) and 1.38 (±0.33) and 1.8 (±0.30); the “α′” value is 1.705 (±0.79) and 1.155 (±0.18) and 1.24 (±0.12). For the same molecule, the Ki at LC of BoNT/A (Ki value) is 14.2 µM and 17.5 µM and 14.7 µM. For the same molecule, at BoNT/A LC, the IC50 is 6.5 µM, the “concentration at which near 100% inhibition (saturation) is reached” value is listed as “about 81 μM” and the inhibition at 100 µM was found to be 100%. On BoNT/A, the “inhibition of SNAP-25 cleavage by BoNT/A in M17 cells” value was “showed inhibition” and the “inhibition of endogenous SNAP-25 cleavage in M-17-TR2 cells” value (from here on “inhibition … in M-17-TR2 cells”) was “significantly inhibit”.
Take `O=c1oc2c(O)c(O)cc3c(=O)oc4c(O)c(O)cc1c4c23` [Compound 2, 2,3,7,8-Tetrahydroxy-chromeno[5,4,3-cde]chromene-5,10-dione]: the concentration for half-maximal inhibition (IC50) amounted to 1.62 µM in experiment [1] and 0.65 ± 0.032 µM against BoNT/A LC. For the same molecule, the inhibition at 100 µM at BoNT/A LC was found to be 101%.
For the molecule `O=C1C=C2CC3(O)COc4c(ccc(O)c4O)C3=C2C=C1O` (stereo not drawn) [Compound 3, 3,4,6a, 10-Tetrahydroxy-6,7-dihydroindeno[2,1-c]chromen-9-one], the IC50 in experiment [1] was determined as 0.86 µM. In addition, on BoNT/A LC, the IC50 was 2.97 ± 0.048 µM and the inhibition at 100 µM was determined as 92.7%. In addition, the “inhibition … in M-17-TR2 cells” value against BoNT/A is reported as “significantly inhibit”.
As to `Cc1cc2c(C(C)C)c(O)c(O)c(C=O)c2c(O)c1-c1c(C)cc2c(C(C)C)c(O)c(O)c(C=O)c2c1O` [Compound 4, 2, 2′-Bis(formyl-1,6,7-trihydroxy-5-isopropyl-3-methylnaphthalene)], the IC50 in experiment [1] turned out to be 11.4 µM; at BoNT/A LC, 3.15 ± 0.043 µM. Besides, the inhibition at 100 µM at BoNT/A LC is 100%.
In the same order, the values of `CCCCCCCCCCCC1=C(O)C(=O)C=C(O)C1=O` [Compound 5, 2,5-dihydroxy-3-undecylcyclohexa-2,5-diene-1,4-dione] are 13.5 µM, 4.5 ± 0.035 µM and 100%.
`O=C1c2ccccc2C(=O)c2c(O)c(O)cc(O)c21` [Compound 6, 1,2,4-trihydroxyanthracene-9,10-dione]: in experiment [1], the half-maximal inhibitory concentration (IC50) is 11.6 µM. Besides, on BoNT/A LC, the IC50 amounted to 4.5 ± 0.0091 µM and the inhibition at 100 µM was found to be 100%. The “inhibition … in M-17-TR2 cells” value against BoNT/A is listed as “significantly inhibit”.
Consider `O=C(O)CCCCC1CCSS1` (stereo not drawn) [Compound 7, 5-(1,2-Dithiolan-3-yl)-pentanoic acid], for which the IC50 was > 20 µM in experiment [1] and 5.06 ± 0.055 µM on BoNT/A LC. For the same molecule, the inhibition at 100 µM on BoNT/A LC is 90.5%.
In the same order, the values of `Cc1c(C(=O)O)c(O)cc2c1C(=O)c1c(O)c([C@@H]3O[C@H](CO)[C@@H](O)[C@H](O)[C@H]3O)c(O)c(O)c1C2=O` [Compound 8, carminic acid] are > 20 µM, 6.8 ± 0.035 µM and 85.1%.
Regarding `O=c1oc2c3c4c(cc2c2c1CCC2)CCCN4CCC3` [Compound 9, 2,3,6,7,10,11-Hexahydro-1H,5H-cyclopenta[3,4][1]benzopyrano[6,7,8-ij]quinolizin-12(9H)-one], the IC50 in experiment [1] is > 20 µM; at BoNT/A LC, 9.3 ± 1.59 µM. For the same molecule, at BoNT/A LC, the inhibition at 100 µM worked out at 83.3%. The “inhibition … in M-17-TR2 cells” value on BoNT/A is “significantly inhibit”.
In the same order, the values of `O=c1c(O)c(-c2ccc(O)c(O)c2)oc2c(O)c(O)cc(O)c12` [Compound 10, 2-(3,4-dihydroxyphenyl)-3,5,7,8-tetrahydroxychromen-4-one] are 0.239 µM, 0.27 ± 0.0049 µM, 104% and “significantly inhibit”.

Values taken from US20180147223A1 (priority 2016, published 2018).
